Source: ChEMBL document CHEMBL1165984, “Antiviral and anti-inflammatory diterpenoids from the soft coral Sinularia gyrosa” (J Nat Prod, 2010)
Activity calls are given as the source filed them. The rule behind the calls is not given here.

Legend:
A549 = test: Cytotoxicity against human A549 cells by MTT assay; format: functional, cell-based
P388 = test: Cytotoxicity against mouse P388 cells by MTT assay; format: functional, cell-based
Klebsiella aerogenes = test: Antimicrobial activity against Enterobacter aerogenes ATCC 13048 at 100 ug/disk; format: functional, organism-based
Salmonella enteritidis = test: Antimicrobial activity against Salmonella enteritidis ATCC 13076 at 100 ug/disk; format: functional, organism-based; conditions: Salmonella enterica subsp. enterica serovar Enteritidis
Serratia marcescens = test: Antimicrobial activity against Serratia marcescens ATCC 25419 at 100 ug/disk; format: functional, organism-based
Shigella sonnei = test: Antimicrobial activity against Shigella sonnei ATCC 11060 at 100 ug/disk; format: functional, organism-based
Yersinia enterocolitica = test: Antimicrobial activity against Yersinia enterocolitica ATCC 23715 at 100 ug/disk; format: functional, organism-based
Human betaherpesvirus 5 = test: Antiviral activity against HCMV infected in HEL cells assessed as reduction of virus plaque formation; format: functional, organism-based; conditions: Human betaherpesvirus 5, HEL
RAW264.7 = test: Antiinflammatory activity in mouse RAW264.7 cells assessed as iNOS protein expression level at 10 uM; format: functional

| SMILES | inhibition (A549) | inhibition (P388) | inhibition (Klebsiella aerogenes) | inhibition (Salmonella enteritidis) | inhibition (Serratia marcescens) | inhibition (Shigella sonnei) | inhibition (Yersinia enterocolitica) | IC50 (Human betaherpesvirus 5) | Activity (RAW264.7) |
| --- | --- | --- | --- | --- | --- | --- | --- | --- | --- |
| C=C(CCC=C(C)C)[C@@H]1CC/C(C)=C/CCC(=C)[C@@H](O)C1 | inactive | inactive | inactive | inactive | inactive | inactive | inactive | – | – |
| C=C(CCC=C(C)C)[C@H]1CC[C@@]2(C)[C@H](C1)C(C)=CC[C@@H]2O [GYROSANOL A] | inactive | inactive | inactive | inactive | inactive | inactive | inactive | 2600 nM | 118.5% |
